Test results reported in patent publication US4268664A, “Process for the preparation of 1-N-isoseryl- or 1-N-(L-4-amino-2-hydroxybutyryl)-3',4'-dideoxykanamycin B and intermediates thereof” (Zaidan Hojin Biseibutsu Kagaku Kenkyu Kai, priority 1978, dated 1981).
Converted amounts (≈) assume the structure as drawn.

Columns and labels:
[1] = test system: drug-resistant microbial strains including Pseudomonas aeruginosa; conditions: cited from earlier work
[2] = test system: kanamycin-resistant microbial strains including Pseudomonas aeruginosa; conditions: cited from earlier work
Pro. rettgelli J-0026 = experiment: Antibacterial activity (MIC), serial dilution method; type: cell-based; conditions: 20 h
Serra. marcescens I-0043 = experiment: as above; type: cell-based; conditions: Serratia marcescens, I0043, 20 h
Serra. marcescens No. 1 = experiment: as above; type: cell-based; conditions: Serratia marcescens, nutrient agar, 37° C., 20 hours
[3] = test system: E. coli (M) Cast. & Chalm.NIHJ JC-2; experiment: as above; type: cell-based; conditions: Escherichia coli, NIHJJC2, 20 h
[4] = test system: Kleb. pneumoniae 22# 3038 (A-20680); experiment: as above; type: cell-based; conditions: Klebsiella pneumoniae; nutrient agar, 37° C., 20 hours; read-out: MIC
Pro. vulgaris OX19 = experiment: as above; type: cell-based; conditions: Proteus vulgaris, nutrient agar, 37° C., 20 hours
E. coli A-0003 = experiment: as above; type: cell-based; conditions: Escherichia coli, A0003; nutrient agar, 37° C., 20 hours
[5] = test system: Sta. aureus Rosenbach FDA 209-P JC-1; experiment: as above; type: cell-based; conditions: Staphylococcus aureus, FDA209; nutrient agar, 37° C., 20 hours
Pro. mirabilis J-0010 = experiment: as above; type: cell-based; conditions: Proteus mirabilis, J0010, 20 h
Sal. typhi 0-901-W = experiment: as above; type: cell-based; conditions: Salmonella enterica, 20 h
Pro. vulgaris J-0001 = experiment: as above; type: cell-based; conditions: Proteus vulgaris, J0001, 20 h
[6] = test system: E. coli JR 66/W 677(A-20683); experiment: as above; type: cell-based; conditions: Escherichia coli, 20 h
Ps. aeruginosa M-0002 = experiment: as above; type: cell-based; conditions: Pseudomonas aeruginosa, M0002; nutrient agar, 37° C., 20 hours; read-out: MIC
B. subtilis ATCC 6633 = experiment: as above; type: cell-based; conditions: Bacillus subtilis, ATCC6633; nutrient agar, 37° C., 20 hours
[7] = test system: Ps. aeruginosa IID 1210 (IFO 3455); experiment: as above; type: cell-based; conditions: Pseudomonas aeruginosa, 20 h
Ps. aeruginosa NC-5 = experiment: as above; type: cell-based; conditions: Pseudomonas aeruginosa, NC5, 20 h
Ps. aeruginosa E-2 = experiment: as above; type: cell-based; conditions: Pseudomonas aeruginosa, E2, 20 h
Ps. aeruginosa M-0148 = experiment: as above; type: cell-based; conditions: Pseudomonas aeruginosa, M0148, 20 h
Sta. epidermidis 109 = experiment: as above; type: cell-based; conditions: Staphylococcus epidermidis, nutrient agar, 37° C., 20 hours
Ps. aeruginosa IAM-1007 = experiment: as above; type: cell-based; conditions: Pseudomonas aeruginosa, IAM1007, 20 h
B. anthracis No. 119 = experiment: microbe, parasite or virus in culture; type: cell-based; conditions: Bacillus anthracis, NO.119, 20 h
E. coli A-0001 = experiment: Antibacterial activity (MIC), serial dilution method; type: cell-based; conditions: Escherichia coli, A0001; nutrient agar, 37° C., 20 hours
Sta. aureus ApO-1 = experiment: as above; type: cell-based; conditions: Staphylococcus aureus, APO1; nutrient agar, 37° C., 20 hours
Sta. aureus No. 26 = experiment: as above; type: cell-based; conditions: Staphylococcus aureus, nutrient agar, 37° C., 20 hours
[8] = test system: Sta. epidermidis ATCC 14990; experiment: as above; type: cell-based; conditions: Staphylococcus epidermidis, ATCC14990; nutrient agar, 37° C., 20 hours
[9] = test system: Sal. enteritidis No. 11(T-okai); experiment: as above; type: cell-based; conditions: Salmonella enterica, 20 h
E. coli No. 29 = experiment: as above; type: cell-based; conditions: Escherichia coli, nutrient agar, 37° C., 20 hours
Sta. aureus Smith S-424 = experiment: as above; type: cell-based; conditions: Staphylococcus aureus, SMITHS424; nutrient agar, 37° C., 20 hours
Pro. morganii K-ono = experiment: as above; type: cell-based; conditions: Morganella morganii; nutrient agar, 37° C., 20 hours
E. coli W 677(A-20684) = experiment: as above; type: cell-based; conditions: Escherichia coli; nutrient agar, 37° C., 20 hours
Procedure: (§1) Antimicrobial spectra of 1-N-(L-isoseryl)- and 1-N-(L-4-amino-2-hydroxybutyryl)-3',4'-dideoxy-3',4'-didehydrokanamycin B (1-AHP-eno-DKB and 1-AHB-eno-DKB) are shown in the following table together with that of 1-N-(L-4-amino-2-hydroxybutyryl)-3',4'-dideoxykanamycin B (1-AHB-DKB).
(§2) The minimum inhibitory concentrations (mcg/ml) of the compounds tested against various microorganisms were determined according to a serial dilution method using nutrient agar medium at 37° C., the estimation being effected after 20 hours-incubation.

Sal. species D-0001 = experiment: as above; type: cell-based; conditions: nutrient agar, 37° C., 20 hours
Procedure: as §1, §2

Sal. species D-0029 = experiment: as above; type: cell-based; conditions: nutrient agar, 37° C., 20 hours
Procedure: as §1, §2

Sal. species D-0006 = experiment: as above; type: cell-based; conditions: nutrient agar, 37° C., 20 hours
Procedure: as §1, §2

Sta. aureus N-0089 = experiment: as above; type: cell-based; conditions: Staphylococcus aureus, N0089; nutrient agar, 37° C., 20 hours
Sal. typhimurium LT-2 = experiment: as above; type: cell-based; conditions: Salmonella enterica, 20 h
Str. faecalis ATCC 8043 = experiment: as above; type: cell-based; conditions: Enterococcus faecalis, ATCC8043; nutrient agar, 37° C., 20 hours
Serra. marcescens No. 2 = experiment: as above; type: cell-based; conditions: Serratia marcescens, nutrient agar, 37° C., 20 hours
Kleb. pneumoniae = experiment: as above; type: cell-based; conditions: Klebsiella pneumoniae; nutrient agar, 37° C., 20 hours; read-out: MIC
[10] = test system: Shigella dysenteriae Shigae; experiment: microbe, parasite or virus in culture; type: cell-based; conditions: 20 h
Ps. aeruginosa M-0032 = experiment: Antibacterial activity (MIC), serial dilution method; type: cell-based; conditions: Pseudomonas aeruginosa, M0032, 20 h

For `NCC1CCC(N)C(OC2C(N)CC(NC(=O)C(O)CN)C(OC3OC(CO)C(O)C(N)C3O)C2O)O1` (stereo not shown) [1-N-isoseryl-3',4'-dideoxykanamycin B], the “activity against a wide variety of drug-resistant microbial strains” value [1] is listed as “high activity”.

In the case of `NCC1CCC(N)C(OC2C(N)CC(N)C(OC3OC(CO)C(O)C(N)C3O)C2O)O1` (stereo not shown) [3',4'-Dideoxykanamycin B], the “activity against kanamycin-resistant microbial strains” value [2] is given as “high activity”.

`NCCC(O)C(=O)NC1CC(N)C(OC2OC(CN)CCC2N)C(O)C1OC1OC(CO)C(O)C(N)C1O` [1-AHB-DKB, 1-N-(L-4-amino-2-hydroxybutyryl)-3',4'-dideoxykanamycin B] gave an MIC (Pro. rettgelli J-0026) of 6.25 µg/mL (≈ 11.3 µM), an MIC (Serra. marcescens I-0043) of 1.56 µg/mL (≈ 2.82 µM) and an MIC (Serra. marcescens No. 1) of 3.13 µg/mL (≈ 5.66 µM). It also gave an MIC [3] of 1.56 µg/mL (≈ 2.82 µM), an MIC [4] of 0.78 µg/mL (≈ 1.41 µM) and an MIC (Pro. vulgaris OX19) of 3.13 µg/mL (≈ 5.66 µM). For the same compound, the MIC (E. coli A-0003) was 3.13 µg/mL (≈ 5.66 µM), the MIC [5] was 0.05 µg/mL (≈ 0.0905 µM) and the “activity against a wide variety of drug-resistant microbial strains” value [1] was “high activity”. It also gave an MIC (Pro. mirabilis J-0010) of 1.56 µg/mL (≈ 2.82 µM), an MIC (Sal. typhi 0-901-W) of 0.39 µg/mL (≈ 0.706 µM) and an MIC (Pro. vulgaris J-0001) of 1.56 µg/mL (≈ 2.82 µM). It also gave an MIC [6] of 1.56 µg/mL (≈ 2.82 µM), an MIC (Ps. aeruginosa M-0002) of 3.13 µg/mL (≈ 5.66 µM) and an MIC (B. subtilis ATCC 6633) of 0.1 µg/mL (≈ 0.181 µM). It also gave an MIC [7] of 12.5 µg/mL (≈ 22.6 µM), an MIC (Ps. aeruginosa NC-5) of 6.25 µg/mL (≈ 11.3 µM) and an MIC (Ps. aeruginosa E-2) of 6.25 µg/mL (≈ 11.3 µM). It also gave an MIC (Ps. aeruginosa M-0148) of 6.25 µg/mL (≈ 11.3 µM), an MIC (Sta. epidermidis 109) of 0.2 µg/mL (≈ 0.362 µM) and an MIC (Ps. aeruginosa IAM-1007) of 1.56 µg/mL (≈ 2.82 µM). For the same compound, the MIC (B. anthracis No. 119) was 0.1 µg/mL (≈ 0.181 µM), the MIC (E. coli A-0001) was 3.13 µg/mL (≈ 5.66 µM) and the MIC (Sta. aureus ApO-1) was 0.2 µg/mL (≈ 0.362 µM). It also gave an MIC (Sta. aureus No. 26) of 0.78 µg/mL (≈ 1.41 µM), an MIC [8] of 0.1 µg/mL (≈ 0.181 µM) and an MIC [9] of 1.56 µg/mL (≈ 2.82 µM). For the same compound, the MIC (E. coli No. 29) was 3.13 µg/mL (≈ 5.66 µM), the MIC (Sta. aureus Smith S-424) was 0.39 µg/mL (≈ 0.706 µM) and the MIC (Pro. morganii K-ono) was 3.13 µg/mL (≈ 5.66 µM). It also gave an MIC (E. coli W 677(A-20684)) of 0.2 µg/mL (≈ 0.362 µM), an MIC (Sal. species D-0001) of 1.56 µg/mL (≈ 2.82 µM) and an MIC (Sal. species D-0029) of 3.13 µg/mL (≈ 5.66 µM). For the same compound, the MIC (Sal. species D-0006) was 1.56 µg/mL (≈ 2.82 µM), the MIC (Sta. aureus N-0089) was 0.39 µg/mL (≈ 0.706 µM) and the MIC (Sal. typhimurium LT-2) was 1.56 µg/mL (≈ 2.82 µM). It also gave an MIC (Str. faecalis ATCC 8043) of 50 µg/mL (≈ 90.5 µM), an MIC (Serra. marcescens No. 2) of 3.13 µg/mL (≈ 5.66 µM) and an MIC (Kleb. pneumoniae) of 0.78 µg/mL (≈ 1.41 µM). For the same compound, the MIC [10] was 0.78 µg/mL (≈ 1.41 µM) and the MIC (Ps. aeruginosa M-0032) was 12.5 µg/mL (≈ 22.6 µM).
